Data taken from patent US20230365592A1 (Agios Pharmaceuticals, Inc., priority 2022, published 2023).

target: T1, human PAH with the R408W mutation (Homo sapiens, UniProt P00439, R408W); test: Cell Based Phenylalanine Flux Assay; settings: A375 cells expressing human R408W PAH; 24 hrs compound incubation; 13C-Tyrosine by LC-MS; average where tested multiple times; read-out: AC50;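 note: after compound treatment, cells received sepiapterin plus isotope-labelled Phenylalanine for 4 hours, then labelled Tyrosine in the medium was quantified, 10-point 2-fold dilution series run in duplicate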
T1 construct: expressed in transfected cells
T1 sequence (P00439 1-452 R408W): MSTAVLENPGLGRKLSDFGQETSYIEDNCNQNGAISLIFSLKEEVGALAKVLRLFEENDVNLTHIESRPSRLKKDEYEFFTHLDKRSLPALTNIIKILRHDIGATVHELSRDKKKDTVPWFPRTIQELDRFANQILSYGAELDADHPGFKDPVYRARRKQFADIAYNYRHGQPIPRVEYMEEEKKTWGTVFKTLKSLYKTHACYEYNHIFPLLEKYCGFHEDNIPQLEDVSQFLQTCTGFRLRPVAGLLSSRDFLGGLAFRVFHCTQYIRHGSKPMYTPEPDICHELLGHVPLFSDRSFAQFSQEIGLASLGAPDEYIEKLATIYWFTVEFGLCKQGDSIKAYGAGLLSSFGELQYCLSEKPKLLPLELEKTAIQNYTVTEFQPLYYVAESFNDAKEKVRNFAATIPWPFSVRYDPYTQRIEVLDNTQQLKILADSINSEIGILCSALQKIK

Row | SMILES | AC50 [µM]
1 | Cc1cnn(C)c1-c1nnc(C(=O)N2CCc3[nH]cnc3[C@@H]2c2cc3c(C)cccn3n2)o1 [Example 927, (R)-(5-(1,4-dimethyl-1H-pyrazol-5-yl)-1,3,4-oxadiazol-2-yl)(4-(4-methylpyrazolo[1,5-a]pyridin-2-yl)-6,7-dihydro-1H-imidazo[4,5-c]pyridin-5(4H)-yl)methanone] | > 5
2 | Cc1cnn(C)c1-c1nnc(C(=O)N2CCc3[nH]cnc3[C@H]2c2cc3c(F)cccn3n2)o1 [Example 928, (S)-(5-(1,4-dimethyl-1H-pyrazol-5-yl)-1,3,4-oxadiazol-2-yl)(4-(4-fluoropyrazolo[1,5-a]pyridin-2-yl)-6,7-dihydro-1H-imidazo[4,5-c]pyridin-5(4H)-yl)methanone] | < 0.5
3 | COc1ccc(-c2nnc(C(=O)N3CCc4[nH]cnc4[C@H]3c3cc4c(C(F)(F)F)cccn4n3)o2)nc1 [Example 932, (S)-(5-(5-methoxypyridin-2-yl)-1,3,4-oxadiazol-2-yl)(4-(4-(trifluoromethyl)pyrazolo[1,5-a]pyridin-2-yl)-6,7-dihydro-1H-imidazo[4,5-c]pyridin-5(4H)-yl)methanone] | < 0.5
4 | COc1ccc(-c2nnc(C(=O)N3CCc4[nH]cnc4[C@@H]3c3cc4c(C(F)(F)F)cccn4n3)o2)nc1 [Example 933, (R)-(5-(5-methoxypyridin-2-yl)-1,3,4-oxadiazol-2-yl)(4-(4-(trifluoromethyl)pyrazolo[1,5-a]pyridin-2-yl)-6,7-dihydro-1H-imidazo[4,5-c]pyridin-5(4H)-yl)methanone] | > 5
5 | Cn1cnc(-c2nnc(C(=O)N3CCc4[nH]cnc4[C@@H]3c3cc4c(C(F)(F)F)cccn4n3)o2)c1 [Example 935, (R)-(5-(1-methyl-1H-imidazol-4-yl)-1,3,4-oxadiazol-2-yl)(4-(4-(trifluoromethyl)pyrazolo[1,5-a]pyridin-2-yl)-6,7-dihydro-1H-imidazo[4,5-c]pyridin-5(4H)-yl)methanone] | > 5

Further lines, results first:

Row | AC50 [µM] | SMILES
6 | < 0.5 | Cc1cnn(C)c1-c1nnc(C(=O)N2CCc3[nH]cnc3[C@H]2c2cc3c(C)cccn3n2)o1 [Example 926, (S)-(5-(1,4-dimethyl-1H-pyrazol-5-yl)-1,3,4-oxadiazol-2-yl)(4-(4-methylpyrazolo[1,5-a]pyridin-2-yl)-6,7-dihydro-1H-imidazo[4,5-c]pyridin-5(4H)-yl)methanone]
7 | > 5 | Cc1cnn(C)c1-c1nnc(C(=O)N2CCc3[nH]cnc3[C@@H]2c2cc3c(F)cccn3n2)o1 [Example 929, (R)-(5-(1,4-dimethyl-1H-pyrazol-5-yl)-1,3,4-oxadiazol-2-yl)(4-(4-fluoropyrazolo[1,5-a]pyridin-2-yl)-6,7-dihydro-1H-imidazo[4,5-c]pyridin-5(4H)-yl)methanone]
8 | > 5 | Cc1cccn2nc([C@H]3c4nc[nH]c4CCN3C(=O)c3oc(-c4cn(C)cn4)nc3C(F)F)cc12 [Example 930, (R)-(4-(difluoromethyl)-2-(1-methyl-1H-imidazol-4-yl)oxazol-5-yl)(4-(4-methylpyrazolo[1,5-a]pyridin-2-yl)-6,7-dihydro-1H-imidazo[4,5-c]pyridin-5(4H)-yl)methanone]
9 | < 0.5 | Cc1cccn2nc([C@@H]3c4nc[nH]c4CCN3C(=O)c3oc(-c4cn(C)cn4)nc3C(F)F)cc12 [Example 931, (S)-(4-(difluoromethyl)-2-(1-methyl-1H-imidazol-4-yl)oxazol-5-yl)(4-(4-methylpyrazolo[1,5-a]pyridin-2-yl)-6,7-dihydro-1H-imidazo[4,5-c]pyridin-5(4H)-yl)methanone]
10 | < 0.5 | Cc1cccc2cc([C@@H]3c4nc[nH]c4CCN3C(=O)c3nnc(-c4ccn(C(F)F)n4)o3)nn12 [Example 936, (S)-(5-(1-(difluoromethyl)-1H-pyrazol-3-yl)-1,3,4-oxadiazol-2-yl)(4-(7-methylpyrazolo[1,5-a]pyridin-2-yl)-6,7-dihydro-1H-imidazo[4,5-c]pyridin-5(4H)-yl)methanone]
